Read-outs that look alike come from different tables or passages of the source.
How the values were obtained:
[1] = biological target: T1, telomerase (Homo sapiens, UniProt O14746); parameters: host or cells: peripheral blood mononuclear cells; settings: reported by Franzese et al.; cited from earlier work
[2] = biological target: T1, telomerase; experiment: Keratinocyte cell/TRAP assay (HEKneo-P cells); format: cell-based; parameters: host or cells: HEKneo-P (pooled neonatal human epidermal keratinocytes); settings: for Activity in in vitro HEK assay: 24 hr, 0.01 to 10 μM, vs vehicle control at peak of full dose curve; for EC50: telomerase activation
Excerpt: Harley et al., U.S. Pat. […] Harley et al., U.S. Pat. […] Non-treatment control (NT) was also included. […]

[3] = Plasma levels and bioavailability in mice; format: in vivo, male C57BL/6 mice; settings: male, C57BL/6, mouse, read-out: Bioavailability % F
Protocol: The plasma levels of a compound following a single intravenous, oral, intra-peritoneal, or sub-cutaneous administration in male C57BL/6 mice was determined. Plasma samples were collected and used to determine the plasma concentration of the compound and metabolites. In addition tissue samples, including whisker samples, and peripheral blood mononuclear cells (PBMC) cells were collected for telomerase activity analysis.
(§1) C57BL16 mice were divided into treatment groups. The mice were provided ad libitum SLAC-MO1 #W080208 (Shanghai Laboratories Animal Center, Shanghai, China) throughout the in-life portion of the study with the exception of the overnight fasting period prior to oral dosing. Water was available ad libitum.
(§2) Body weights were taken on the day of dose administration. Dose volume was determined based on individual body weight taken on day of dosing.
Blood samples (approximately 300 μL) were collected via cardiac puncture or via retro-orbital puncture after anesthesia into tubes containing K2-EDTA anticoagulant and 1 mg/ml NaF at the various time points after dosing. Blood was stored on ice and then plasma separated via centrifugation (8000 rpm×6 minutes). The plasma was stored at […] until LC-MS/MS analysis.

[4] = Plasma levels and bioavailability in rats; settings: male, Sprague Dawley, rat, in vivo, po, 10 mg/kg
Protocol: (§3) The plasma levels of a compound following a single intravenous and oral administration in carotid artery-cannulated male Sprague Dawley rats was determined. Plasma samples were collected and used to determine the plasma concentration of the compound and metabolites. In addition tissue samples, including whisker samples and PBMC cells were collected for telomerase activity analysis.
as §1, with “Carotid artery-cannulated male Sprague Dawley rats” for “C57BL16 mice”, “groups according to Table 6.” for “groups.”, “rats” for “mice”, “# YY080208” for “#W080208”
The compounds were dissolved in 2% EtOH/98% water to yield a final concentration of 2.5 mg/ml and 1 mg/ml for both intravenous and oral administration, respectively. The concentration of each compound was confirmed by HPLC analysis.
as §2
(§4) Blood samples (approximately 250 μL) were collected via cannulae into tubes containing K2-EDTA anticoagulant and 1 mg/ml NaF at the various time points. Blood was stored on ice and then plasma separated via centrifugation (8000 rpm×6 minutes). The plasma was stored at […] until LC-MS/MS analysis.
Percentage of bioavailability was calculated.

[5] = system: Human brain pericytes; experiment: Tube formation of human brain pericytes on Matrigel; format: cell-based; settings: 0.5 μM in water, 24 hr then 6 hr on Matrigel, p<0.15
Protocol: Human brain pericytes (donor) at PD 10 were cultured for a total of 30 hr in 0.5 μM compound 7 dissolved in water. Telomerase activity and tube formation were analyzed.
Brain pericytes were first cultured for 24 hr in a T-75 flask in 0.5 μM compound 7, and then split onto a 24 well plate coated with Matrigel in order to promote tube formation (done in triplicate). 0.5 μM compound 7 was again included in the medium. After 6 hr the samples were fixed and branch points were counted using a microscope, 5 fields/well, with 3 wells/condition. Compound 7 treated pericytes had 1.9 times more branch points than the control (p<0.15).

[6] = parameters: species or system male Beagle dogs; settings: male, Beagle, dog, in vivo, po, 10 mg/kg
Protocol: as §3, with “level” for “levels”, “in” for “in carotid artery-cannulated”, “Beagle dogs” for “Sprague Dawley rats”
as §1, with “Male Beagle dogs” for “C57BL16 mice”, “groups according to Table 5.” for “groups.”, “dogs” for “mice”, “#W080701” for “#W080208”
The compounds were dissolved in 2% EtOH/98% water […] to yield a final concentration of 2.5 mg/ml and 1 mg/ml for both intravenous and oral administration, respectively. The concentration of each compound was confirmed by HPLC analysis.
Doses were administered intravenously via the left femoral vein and then by oral dosing one week later. Body weights were taken on the day of dose administration. Dose volume was determined based on individual body weight taken on day of dosing.
as §4, with “right femoral vein” for “cannulae”, “appropriate” for “the various”

[7] = biological target: T1, telomerase; experiment: In vitro model of fibrosis: TGFβ and bleomycin treated SAECs, gel TRAP assay; format: cell-based; settings: bleomycin 10 ug/ml, TGFβ 10 ng/ml
Protocol: In addition a portion of the cells were treated with bleomycin (10 ug/ml) and TGFβ (10 ng/ml). Forty-eight hours after the second treatment, cells were washed and lysed with M-Per lysis buffer. A gel TRAP assay was run to evaluate the telomerase activity in the cells.

T1 sequence (O14746 whole entry): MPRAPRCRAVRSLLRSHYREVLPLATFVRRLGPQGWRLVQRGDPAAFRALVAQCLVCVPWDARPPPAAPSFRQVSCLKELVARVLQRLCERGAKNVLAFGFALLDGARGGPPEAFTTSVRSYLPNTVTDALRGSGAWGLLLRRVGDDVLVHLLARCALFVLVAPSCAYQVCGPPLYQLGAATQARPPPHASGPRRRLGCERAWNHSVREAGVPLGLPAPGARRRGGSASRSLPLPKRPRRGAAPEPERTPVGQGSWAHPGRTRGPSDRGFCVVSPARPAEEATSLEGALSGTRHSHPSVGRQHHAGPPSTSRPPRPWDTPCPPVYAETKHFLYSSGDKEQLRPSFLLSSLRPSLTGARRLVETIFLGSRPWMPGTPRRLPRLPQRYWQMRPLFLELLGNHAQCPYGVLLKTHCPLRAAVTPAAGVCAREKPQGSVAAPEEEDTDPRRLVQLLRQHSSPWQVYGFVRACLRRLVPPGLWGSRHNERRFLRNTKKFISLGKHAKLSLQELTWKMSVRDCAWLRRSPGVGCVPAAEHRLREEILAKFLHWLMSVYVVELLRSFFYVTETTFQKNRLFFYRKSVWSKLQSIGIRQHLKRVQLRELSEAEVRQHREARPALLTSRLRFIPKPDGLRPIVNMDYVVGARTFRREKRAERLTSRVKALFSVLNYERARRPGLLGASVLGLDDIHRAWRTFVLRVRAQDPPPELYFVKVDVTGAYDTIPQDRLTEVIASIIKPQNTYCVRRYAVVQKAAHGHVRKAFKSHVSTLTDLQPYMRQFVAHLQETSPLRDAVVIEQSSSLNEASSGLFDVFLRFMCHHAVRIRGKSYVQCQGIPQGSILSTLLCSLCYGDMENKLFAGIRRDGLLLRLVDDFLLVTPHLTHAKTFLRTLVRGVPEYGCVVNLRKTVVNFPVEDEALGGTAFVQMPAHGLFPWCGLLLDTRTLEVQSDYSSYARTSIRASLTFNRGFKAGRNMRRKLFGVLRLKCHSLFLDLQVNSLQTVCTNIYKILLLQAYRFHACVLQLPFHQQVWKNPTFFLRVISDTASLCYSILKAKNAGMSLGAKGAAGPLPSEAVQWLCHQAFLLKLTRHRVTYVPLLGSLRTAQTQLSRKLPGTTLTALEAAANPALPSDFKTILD

| Compound | Max fold increase of activity [2] [fold] | Activity in in vitro HEK assay [2] | Bioavailability % F [4] [%] | EC50 [2] [nM] | also measured |
| --- | --- | --- | --- | --- | --- |
| CC(C)(C)NC(=O)[C@@H]1C[C@@H]2CCCC[C@@H]2CN1C[C@@H](O)[C@H](Cc1ccccc1)NC(=O)[C@H](CC(N)=O)NC(=O)c1ccc2ccccc2n1 [Saquinavir] |  |  |  |  | telomerase activity in peripheral blood mononuclear cells [1]: increased telomerase activity |
| CC(C)[C@H](N)C(=O)OC1CC2(C)C3CC(O)C4C(C)(C)C(O)CCC45CC35CCC2(C)C1C1(C)CCC(C(C)(C)O)O1 (stereo partly drawn) [Compound 36, 2-(L)-Amino-3-methyl-butyric acid 3β,6α-dihydroxy-16β-hydroxy-17-[5-(1-hydroxy-1-methyl-ethyl)-2-methyl-tetrahydro-furan-2-yl]-4,4,13,14-tetramethyl-tetradecahydro-cyclopropa[9,10]cyclopenta[a]phenanthren-16β-yl ester] | 3.0 | + (telomerase activation is 2 fold or more in comparison with vehicle control at the peak of the full dose curve.) |  |  | concentration at Max fold increase of activity [2]: 0.01 to 0.12 µM |
| CC(C)C(N)C(=O)OC1CC2C3(C)CC(O)C(C4(C)CCC(C(C)(C)O)O4)C3(C)CCC23CC32CCC(OC(=O)C(N)C(C)C)C(C)(C)C12 (stereo not drawn) [Compound 7, 2-(L)-Amino-3-methyl-butyric acid 6α-(2-amino-3-methyl-butyryloxy)-16β-dihydroxy-17-[5-(1-hydroxy-1-methyl-ethyl)-2-methyl-tetrahydro-furan-2-yl]-4,4,13,14-tetramethyl-tetradecahydro-cyclopropa[9,10]cyclopenta[a]phenanthren-3β-yl ester] |  |  | 44 | 41 to 50 | bioavailability ([3]; PO, 10 mg/kg, 2% EtOH/98% water): 25%; bioavailability ([3]; SC, 10 mg/kg, 2% EtOH/98% water): 61%; branch points relative to the control [5]: 1.9 times |
| CCC(C)C(N)C(=O)OC1CCC23CC24CCC2(C)C(C5(C)CCC(C(C)(C)O)O5)C(O)CC2(C)C4CC(O)C3C1(C)C (centres unmarked) [Compound 14] |  |  | 93 | 9 to 21 | bioavailability ([3]; PO, 10 mg/kg, 5% PEG400/5% solutol HS-15/90% water): 42%; Bioavailability % F [6]: 55% |
| CCC(C)[C@H](N)C(=O)OC1CC2C3(C)CC(O)C(C4(C)CCC(C(C)(C)O)O4)C3(C)CCC23CC32CCC(OC(=O)[C@@H](N)C(C)CC)C(C)(C)C12 (some centres unmarked) [Compound 32] | 3 | + (telomerase activation is 2 fold or more in comparison with vehicle control at the peak of the full dose curve.) |  |  | concentration at Max fold increase of activity [2]: 0.37 to 1.1 µM |
| CC(C)C(N)C(=O)OC1CC2C3(C)CC(O)C(C4(C)CCC(C(C)(C)O)O4)C3(C)CCC23CC32CCC(O)C(C)(C)C12 (centres unmarked) [Compound 12] |  |  | 27 | 28 to 32 | bioavailability ([3]; IP, 5 mg/kg, 2% EtOH/98% water): 42%; bioavailability ([3]; PO, 5 mg/kg, 2% EtOH/98% water): 8% |
| bleomycin |  |  |  |  | effect on SAEC telomerase activity [7]: suppressed SAEC telomerase activity |
| CC(C)[C@H](N)C(=O)O[C@H]1CC2C3(CC[C@]4(C)[C@@H]([C@@]5(C)CC[C@@H](C(C)(C)O)O5)[C@@H](O)C[C@@]24C)C[C@@]32CCC(=O)C(C)(C)[C@H]12.Cl (stereo partly drawn) [Compound 30, 2-(L)-Amino-3-methyl butyric acid 16β-hydroxy-17-[5-(1-hydroxy-1-methyl-ethyl)-2-methyl-tetrahydro-furan-2-yl]-4,4,13,14-tetramethyl-3-oxo-tetradecahydro-cyclopropa[9,10]cyclopenta[a]phenanthren-6α-yl ester] | 3.5 | + (telomerase activation is 2 fold or more in comparison with vehicle control at the peak of the full dose curve.) |  |  |  |

Reference: patent publication US9403866B2, “Compositions and methods for increasing telomerase activity” (Telomerase Activation Sciences, Inc., priority 2009, dated 2016)
